Laboratory results taken from patent US20070072954A1, “Novel tetraoxaspiroalkanes and methods of use with organosilicon monomers in polyerizable compositions” (Curators of the University of Missouri, priority 2005, published 2007).
Marks after values point to notes of the source that are not given here.

Tests used:
[1] = Mechanical properties measurement (3-point bend tests); format: physicochemical; conditions: for Flexural elastic modulus / Work of Fracture / Flexural ultimate strength: 24-h, mean(std. dev.), n=6, BT and SIL-MIX alone; for Flexural ultimate strength: the values are: Ultimate (flexural) strength
Procedure: In this example, the elastic modulus, ultimate strength, and work of fracture were determined for the monomers of the present invention. […] The resin was injected into the mold and cured by irradiation (500 mW/cm^2) followed by storage in the dark for 4 hours and 24 hours before mechanical tests were conducted. Three point bending tests were conducted using an electromagnetic mechanical testing machine (Enduratec Model 3200) with a 20-mm span and at a crosshead displacement rate of 0.5mm/ min at room temperature (25° C.). Load-displacement data were collected at 100 Hz. […] Flexural ultimate strength was determined from the peak loads and work of fracture was determined from the area under the stress-strain curve.

[2] = Photoreactivity assessment (photo DSC enthalpy of polymerization); format: physicochemical; conditions: for ΔH (experimental)/ΔH (calculated): calculated for an inert diluent; for Exotherm Peak Maximum / Net Enthalpy ΔH: TOSU monomers 20 mol % in SIL-MIX, SIL-MIX alone; for Net Enthalpy ΔH: experimental, 1 wt % CQ, 0.1 wt % ED, 400-500 nm, 10 min, 25° C., n=1; for Net Enthalpy ΔH / ΔHexp / ΔHcalc: 3 wt % PI
Source text: In this example, the photoreactivity of various combinations of SIL-MIX alone or SIL-MIX with 3,9-diethyl-3,9-bis(allyloxymethyl)-1,5,7,11-tetraoxaspiro[5.5]undecane (DEBAOM-1,5,7,11-TOSU) 1; 3,9-bis(3-trimethylsilylpropyl)-1,5,7,11-tetraoxaspiro[5.5]undecane (BTMSP-1,5,7,11-TOSU) 2; 3,9-bis(allyloxymethyl)-2,4,8,10-tetraoxaspiro[5.5]undecane (BAOM-2,4,8,10-TOSU) 3; 3,9-bis(2-trimethylsilylethyl)-[…] (BTMSE-2,4,8,10-TOSU) 4; 3,3-diethyl-11,12-epoxy-1,5,7,16-tetraoxadispiro[5.2.5.2]hexadecane (DECHE-1,5,7,11-TOSU) 5; and 3,9-diethyl-3,9-bis(3-trimethylsilylpropyloxymethyl)-1,5,7,11-tetraoxaspiro[5.5]-undecane (DEBTMSPOM-1,5,7,11-TOSU) 6 was investigated. The photoreactivity assessments (n=1) were made using an EXFO Novacure light curing unit interfaced with a Perkin-Elmer Diamond DSC. The experimental conditions were as follows: 25° C.; N2 atmosphere; 400-500 nm light; 3 mm quartz light guides; output: 500 mW/cm measured 15 mm from sample surface. The sample weights were 15-18 mg. Standard A1 pans were used. An empty pan was placed in the reference position. Irradiation time was for 10 minutes following a 1 minute equilibration. After the initial run, the sample was re-irradiated for an additional 10 minutes. This second curve was subtracted from the initial exotherm curve to zero out artifacts due to beginning and ending of irradiation, and to compensate for the heat capacity differences between the sample pan and empty reference pan. Integrations were from time t=1.1 (lamp shutter opened) min to 11.1 min (lamp shutter closed).
In this example, reaction mixtures containing 0 or 20 mol % of TOSU monomers 1, 2, 3, 4, and 5 in SIL-MIX were formulated with 4.1 wt % photoinitiator system (3 wt % PI; 1 wt % CQ; 0.1 wt % ED). Formulated mixtures were heated for 5 minutes on an oil bath at about 60° C. and stirred magnetically to aid dissolution of the photoinitiator system and inventive monomer. Formulations were prepared and stored away from ambient light. Mixtures were tested for photoreactivity the same day as prepared.
The effect of doubling the photoinitiator (PI) content from 3 wt % to 6 wt % was also determined for selected mixtures. As in Example 7(a) above, reaction mixtures (about 2 g) were formulated with 4.1 wt % photoinitiator system (3 wt % PI; 1 wt % CQ; 0.1 wt % ED) except where noted. Formulated mixtures were heated for 5 minutes on an oil bath @ 60° C. and stirred magnetically to dissolve the photoinitiator system and 6 (DEBTMSPOM-1,5,7,11-TOSU) when included. Formulations were prepared and stored away from ambient light and tested the same day as prepared.

[3] = Photopolymerization stress measurement (tensilometer); format: physicochemical; conditions: for Polymerization Stress: mean(std. dev.), n=3, TOSU monomers 20 mol % in SIL-MIX, BT and SIL-MIX alone
Procedure: In this example, the photopolymerization stress of the monomers of the present invention was investigated. Stress generated during photopolymerization was measured (n=3) using an electromagnetic mechanical testing machine (Enduratec Model 3200, Bose Corp., Minnetonka, Minn.) adapted to be a tensilometer. See Feilzer et al., Dent. Mater. […] Briefly, two identical glass rods, 5 mm in diameter, were placed opposing one another and separated by 1 mm (C-factor=2.5). A displacement transducer (LVDT, Enduratec, 0.1 μm resolution, range ±1 mm) was mounted on one glass rod and was touching a plate attached to the opposing glass rod. The distance between the mounts on the opposing glass rods was about 9 mm (including the 1 mm separation between the rods). Samples placed between the glass rods were cured by irradiation (500 mW/cm^2), while under LVDT displacement control. Load-displacement data were collected at 200 Hz for 30 mins. […] From the load-displacement data, peak loads were obtained and normalized by the original area to obtain the polymerization stresses.

[4] = Oxirane ring-opening (oxirane conversion) via FTIR; format: physicochemical; conditions: thin film, 10 min irradiation
Procedure: In this example, the oxirane ring-opening of monomers 1 (DEBAOM-1,5,7,11-TOSU) or 6 (DEBTMSPOM-1,5,7,11-TOSU) was investigated using FTIR. All FTIR spectra were acquired using a Perkin-Elmer BX II FTIR spectrophotometer. The identification of the location of the oxirane absorption band in the IR spectrum of Siloranes was achieved by methanolysis. A sample was dissolved in CH2Cl2 and exposed to CH30H in the presence of a catalytic amount of zinc tetrafluoroborate hydrate overnight. The mixture was evaporated onto a salt plate. An FTIR spectrum was acquired and compared to pre-exposure spectrum. There was a significant decrease in the oxirane absorption region at 882-886 cm^−1. This band was selected as the absorption to monitor for following the oxirane ring-opening reaction.
Analytical samples contained siloranes I, II, or SIL-MIX with and without 50 mol % of monomer 1 (DEBAOM-1,5,7,11-TOSU) or 6 (DEBTMSPOM-1,5,7,11-TOSU). A thin film was brushed onto a salt plate. Irradiation (10 minutes at 23 to 25° C. and R. H.=40-45%) was provided by a 3M XL2500 curing light positioned 1-cm above the sample surface. The light intensity was measured at 360 mW/cm^2 on the sample surface. The oxirane band absorption and an internal reference band absorption were assessed before and after irradiation. Oxirane conversion (alpha) was calculated according to equation (1) by Pan et al., Polym Int 2000, 49, 74. [formula] where subscripts 0 and t represent pre-irradiation and post-irradiation respectively.

[5] = 20 mol % in SIL-MIX, Dunnett's test p=0.05
[6] = TOSU monomers 20 mol % in SIL-MIX

| elastic modulus values compared with the methacrylate control (BT) [1, 5] | Flexural elastic modulus [1, 6] [GPa] | Work of Fracture [1, 6] | Flexural ultimate strength [1, 6] [MPa] | ΔH (experimental)/ΔH (calculated) ([2]; 20 mol % in SIL-MIX) [%] | Exotherm Peak Maximum [2] [s] | Net Enthalpy ΔH [2] | Polymerization Stress [3] | SMILES | ultimate strength values compared with the methacrylate control (BT) [1, 5] | other results |
| --- | --- | --- | --- | --- | --- | --- | --- | --- | --- | --- |
| significantly lower | 2.2 | 5.82 (2.02) kJ/m^2 | 84.6 | 80 | 14 | −116^b J/g | 0.17 (0.06)* N/mm^2 | C=CCOCC1(CC)COC2(OC1)OCC(CC)(COCC=C)CO2 (centres unmarked) [Monomer 1, 3,9-diethyl-3,9-bis(allyloxymethyl)-1,5,7,11-tetraoxaspiro[5.5]undecane] | significantly lower | Oxirane Conversion ([4]; comonomer 50 mol % in PH-SIL (I)): 36%; Oxirane Conversion ([4]; comonomer 50 mol % in TET-SIL (II)): 27%; ΔHexp ([2]; 20 mol % in SIL-MIX): -124 J/g; ΔHexp ([2]; 50 mol % in PH-SIL): -78 J/g; ΔHcalc ([2]; calculated for inert diluent instead of TOSU at 20 mol %): -154 J/g; ΔHcalc ([2]; calculated for inert diluent instead of TOSU at 50 mol % in PH-SIL): -104 J/g; experimental ΔH as % of the calculated ΔH ([2]; 20% in SIL-MIX): 81%; experimental value as % of the calculated value (ΔH) ([2]; 50% in Ph-Sil): 75% |
|  |  |  |  |  |  |  |  | C[Si]1(CCC2CCC3OC3C2)O[Si](C)(CCC2CCC3OC3C2)O[Si](C)(CCC2CCC3OC3C2)O[Si](C)(CCC2CCC3OC3C2)O1 (centres unmarked) [TET-SIL, 2,4,6,8-tetramethyl-2,4,6,8-tetrakis-[2-(7-oxabicyclo[4.1.0]hept-3-yl)ethyl]-1,3,5,7-tetraoxa-2,4,6,8-tetrasilacyclooxtane, reference compound] |  | Oxirane Conversion ([4]; silorane without comonomer): 13% |
| significantly lower | 2.13 | 7.17 (1.58) kJ/m^2 | 87.8 | 117 | 15 | −170^b J/g | 1.20 (0.17)* N/mm^2 | C=CCOCC1OCC2(CO1)COC(COCC=C)OC2 (centres unmarked) [Monomer 3, 3,9-bis(allyloxymethyl)-2,4,8,10-tetraoxaspiro[5.5]undecane] | significantly lower | enthalpies above those calculated for addition of an inert diluent ([2]; 20 mol % in SIL-MIX): 17% |
|  | 2.58 | 5.33 (1.09) kJ/m^2 | 96 | 57 | 16 | −82^b J/g | 0.33 (0.15)* N/mm^2 | CCC1(CC)COC2(OC1)OCC1(CCC3OC3C1)CO2 (centres unmarked) [Monomer 5, 3,3-diethyl-11,12-epoxy-1,5,7,16-tetraoxadispiro[5.2.5.2]hexadecane] |  | melting point: 67.4 °C |
|  |  |  |  |  |  |  |  | C[Si](CCC1CCC2OC2C1)(CCC1CCC2OC2C1)c1ccccc1 (centres unmarked) [PH-SIL, methylbis[2-(7-oxabicyclo[4.1.0]hept-3-yl)ethyl]phenylsilane, reference compound] |  | Oxirane Conversion ([4]; silorane without comonomer): 31%; ΔHexp ([2]; 100% silorane): -208 J/g |

| SMILES | elastic modulus values compared with the methacrylate control (BT) [1, 5] | Flexural elastic modulus [1, 6] [GPa] | Work of Fracture [1, 6] | Flexural ultimate strength [1, 6] [MPa] | ΔH (experimental)/ΔH (calculated) ([2]; 20 mol % in SIL-MIX) [%] | Exotherm Peak Maximum [2] [s] | Net Enthalpy ΔH [2] | Polymerization Stress [3] | ultimate strength values compared with the methacrylate control (BT) [1, 5] | other results |
| --- | --- | --- | --- | --- | --- | --- | --- | --- | --- | --- |
| C[Si](C)(C)CCCC1COC2(OC1)OCC(CCC[Si](C)(C)C)CO2 (centres unmarked) [Monomer 2, 3,9-bis(3-trimethylsilylpropyl)-1,5,7,11-tetraoxaspiro[5.5]undecane] | significantly lower | 1.9 | 1.12 (0.42)* kJ/m^2 | 42.4 | 54 | 14 | −78^b J/g | 0.23 (0.06)* N/mm^2 | significantly lower | work of fracture values compared with the methacrylate control (BT) [1, 5]: significantly lower; all mechanical properties, overall comparison (with BT control and among formulations) ([1]; TOSU monomers 20 mol % in SIL-MIX, SIL-MIX alone): lowest mechanical property values |
| C[Si](C)(C)CCC1OCC2(CO1)COC(CC[Si](C)(C)C)OC2 (centres unmarked) [Monomer 4, 3,9-bis(2-trimethylsilylethyl)-2,4,8,10-tetraoxaspiro[5.5]undecane] |  | 2.36 | 5.63 (1.82) kJ/m^2 | 92.2 | 117 | 17 | −170^b J/g | 6.90 (1.76)* N/mm^2 | significantly lower | enthalpies above those calculated for addition of an inert diluent ([2]; 20 mol % in SIL-MIX): 17%; Photopolymerization stress reduced ([3]; 20 mol % in SIL-MIX): 40% |
